Data taken from PubChem BioAssay AID2060607 (Molecular Pharmacology Branch, DTP, NCI, 2025).

System: 876862-298-R-J1-PDC complex spheroids, viability % test/control
Test: Anticancer human tumor 876862-298-R-J1-PDC patient-derived endometrial carcinoma cell line growth inhibition [CLK]
Details: for IC50: curve of first compound; for viability, T/C: stronger effect = lower value; active = viability on the fitted dose curve at most 10% of control; inactive = the rest
Description: A high-throughput screen of multi-cell type tumor spheroids was designed to identify active combinations of […] and targeted small molecules. Complex spheroids include a stromal component modeled by human endothelial cells (HUVEC) and fibroblasts modeled by human mesenchymal stem cells (MSCs). The concentration ranges selected for each drug and investigational agent were based upon clinically achievable concentrations if the clinical Cmax of the agent was known.
Compounds. The drugs and investigational agents: cirtuvivint (SM08502; NSC835563), CC-671 (NSC850746), vemurafenib (NSC761431), tapotoclax (NSC804041), sotorasib (NSC818433), adagrasib (NSC831453), MRTX-1133 (NSC836407), BAY2416964 (NSC825713), copanlisib (NSC816437), inavolisib (NSC800729), abemaciclib (NSC768073), osimertinib (NSC779217), entinostat (NSC756642), eltanexor (KPT-8602, NSC794443), venetoclax (NSC766270), ceralasertib (NSC777638), bortezomib (NSC756655), olaparib (NSC753686), talazoparib (NSC767125), alisertib (NSC759677), peposertib (NSC802822), gemcitabine (NSC613327), 5-fluorouracil (NSC19893), SN-38 (NSC673596), oxaliplatin (NSC266046), paclitaxel (NSC125973), and doxorubicin (NSC123127), were obtained from the National Cancer Institute (NCI) Developmental Therapeutics Program Chemical Repository. The FDA-approved anticancer drug set is available from the Developmental Therapeutics Program at https://dtp.cancer.gov/organization/dscb/obtaining/available plates.htm. […] The stock solutions were prepared in dimethyl sulfoxide (DMSO, Sigma-Aldrich, St. Louis, MO, cat. D2650), except for the platinum complexes which were prepared in saline (Quality Biological, Gaithersburg, MD, cat. 114-055-101), at 800-fold the tested concentration and stored at -70 degrees C prior to their use. All drugs and investigational agents were tested over a range starting from a high concentration at or near the clinical Cmax and decreasing in half-log increments. If the clinical Cmax for an agent had not been determined, the highest concentration tested was 10 microM.
Cell Culture. All cells were maintained in an incubator at 37 degrees C and 5% CO2 with 95% humidity. The PDC lines were cultured according to standard operating procedures established by the NCI PDMR. Briefly, all PDCs were thawed and cultured in Matrigel-coated flasks prepared with a working solution of 1X Ham's F-12 nutrient mix, without supplementation (Invitrogen, Waltham, MA, cat. 11765054), 100 U/mL penicillin-streptomycin (Invitrogen, cat. 15140122), and 2.5% Matrigel (Corning Inc., Corning, NY, cat. 354248) for the first three passages. The 947758-054-R-J2-PDC line was cultured in 6B/Colon 1A media, which includes advanced DMEM/F-12 (Thermo Fisher Scientific, cat. 12634028), 10 mM HEPES (Thermo Fisher Scientific, cat. 15630080), 1X GlutaMAX supplement (Thermo Fisher Scientific, cat. 35050061), 0.1 mg/mL primocin (InvivoGen, cat. ant-pm-2), 10% defined fetal bovine serum, heat inactivated (HyClone Laboratories Inc., cat. SH30070.03HI), 1.25 mM N-Acetyl-L-cysteine (Sigma-Aldrich, cat. A9165), 10 mM nicotinamide (Sigma-Aldrich, cat. N0636), 1X B-27 supplement (Thermo Fisher Scientific, cat. 17504044), 1X N-2 supplement (Thermo Fisher Scientific, cat. 17502048), and 10 microM Y-27632 dihydrochloride (Tocris Bioscience, cat. 1254). The 876862-298-R-J1-PDC was cultured in 6E media, which includes all 6B/Colon 1A media components plus 50% L-WRN conditioned media (ATCC, cat. CRL-3276), 50 ng/mL recombinant human EGF recombinant protein (hEGF; Thermo Fisher Scientific, cat. PHG0311), 10 ng/mL recombinant human fibroblast growth factor 10 (hGFG-10; PeproTech, cat. 100-26), 1 ng/mL recombinant human fibroblast growth factor 2 (hFGF-2; PeproTech, cat. 100-18B), and 1 µM prostaglandin E2 (PGE2; Tocris, cat. 2296). The 227483-062-R1-J1-PDC line was cultured in Panc media, containing all 6E components except hFGF-2, with the addition of 500 nM SB-431542 (Selleckchem, cat. S1067) and 10 nM gastrin (Tocris, cat. 3006). […]
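Also: spheroids exposed to drugs for 7 days before readout.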
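For viability, T/C in this document: 100% = DMSO vehicle control wells.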

C=CC(=O)Nc1cc(Nc2nccc(-c3cn(C)c4ccccc34)n2)c(OC)cc1N(C)CCN(C)C + CN1CCN(c2cc(C(=O)Nc3cc4cc(-c5cnn(C)c5)ccc4cn3)ccn2)CC1
262 nM: IC50 (second compound 0.0316 µM)
inactive: viability, T/C (second compound 0.0316 µM, first compound 0.000949 µM) 90% | viability, T/C (second compound 0.0316 µM, first compound 0.003 µM) 92.8% | viability, T/C (second compound 0.0316 µM, first compound 0.00949 µM) 90% | viability, T/C (second compound 0.0316 µM, first compound 0.03 µM) 82.7% | viability, T/C (second compound 0.0316 µM, first compound 0.0949 µM) 67.6% | viability, T/C (second compound 0.0316 µM, first compound 0.3 µM) 47.6% | viability, T/C (second compound 0.1 µM, first compound 0.000949 µM) 51.6% | viability, T/C (second compound 0.1 µM, first compound 0.003 µM) 45.1% | viability, T/C (second compound 0.1 µM, first compound 0.00949 µM) 43.7% | viability, T/C (second compound 0.1 µM, first compound 0.03 µM) 48.8% | viability, T/C (second compound 0.1 µM, first compound 0.0949 µM) 43.3% | viability, T/C (second compound 0.1 µM, first compound 0.3 µM) 30.7%
active: viability, T/C (second compound 0.316 µM, first compound 0.000949 µM) 3.41% | viability, T/C (second compound 0.316 µM, first compound 0.003 µM) 4.12% | viability, T/C (second compound 0.316 µM, first compound 0.00949 µM) 3.52% | viability, T/C (second compound 0.316 µM, first compound 0.03 µM) 4.04% | viability, T/C (second compound 0.316 µM, first compound 0.0949 µM) 4.57% | viability, T/C (second compound 0.316 µM, first compound 0.3 µM) 3.03% | viability, T/C (second compound 1 µM, first compound 0.000949 µM) 0.75% | viability, T/C (second compound 1 µM, first compound 0.003 µM) 1.64% | viability, T/C (second compound 1 µM, first compound 0.00949 µM) 2.15% | viability, T/C (second compound 1 µM, first compound 0.03 µM) 1.03% | viability, T/C (second compound 1 µM, first compound 0.0949 µM) 0.6% | viability, T/C (second compound 1 µM, first compound 0.3 µM) 2.34% | viability, T/C (second compound 3.16 µM, first compound 0.000949 µM) 1.02% | viability, T/C (second compound 3.16 µM, first compound 0.003 µM) 1.18% | viability, T/C (second compound 3.16 µM, first compound 0.00949 µM) 1.66% | viability, T/C (second compound 3.16 µM, first compound 0.03 µM) 1.01% | viability, T/C (second compound 3.16 µM, first compound 0.0949 µM) 1.3% | viability, T/C (second compound 3.16 µM, first compound 0.3 µM) 1.16% | viability, T/C (second compound 10 µM, first compound 0.000949 µM) 0.77% | viability, T/C (second compound 10 µM, first compound 0.003 µM) 2.03% | viability, T/C (second compound 10 µM, first compound 0.00949 µM) 2.52% | viability, T/C (second compound 10 µM, first compound 0.03 µM) 1.87% | viability, T/C (second compound 10 µM, first compound 0.0949 µM) 2.21% | viability, T/C (second compound 10 µM, first compound 0.3 µM) 1.88%
< 0.949 nM: IC50 (second compound 0.1 µM) | IC50 (second compound 0.316 µM) | IC50 (second compound 1 µM) | IC50 (second compound 3.16 µM) | IC50 (second compound 10 µM)

Nc1ccccc1NC(=O)c1ccc(CNC(=O)OCc2cccnc2)cc1 + CNC(=O)c1ccc(Nc2nc(OC3CCCC3)c3c(-c4ccc5nc(C)oc5c4)c[nH]c3n2)c(OC)c1
1070 nM: IC50 (second compound 0.1 µM)
active: viability, T/C (second compound 1 µM, first compound 10 µM) 9.26% | viability, T/C (second compound 3.16 µM, first compound 10 µM) 2.17% | viability, T/C (second compound 10 µM, first compound 3.16 µM) 10% | viability, T/C (second compound 10 µM, first compound 10 µM) 0.74%
3670 nM: IC50 (second compound 0.0316 µM)
< 31.6 nM: IC50 (second compound 0.316 µM) | IC50 (second compound 1 µM) | IC50 (second compound 3.16 µM) | IC50 (second compound 10 µM)
inactive: viability, T/C (second compound 0.0316 µM, first compound 0.0316 µM) 71.4% | viability, T/C (second compound 0.0316 µM, first compound 0.1 µM) 88.4% | viability, T/C (second compound 0.0316 µM, first compound 0.316 µM) 82.8% | viability, T/C (second compound 0.0316 µM, first compound 1 µM) 80.6% | viability, T/C (second compound 0.0316 µM, first compound 3.16 µM) 53.1% | viability, T/C (second compound 0.0316 µM, first compound 10 µM) 29.2% | viability, T/C (second compound 0.1 µM, first compound 0.0316 µM) 46.3% | viability, T/C (second compound 0.1 µM, first compound 0.1 µM) 45.3% | viability, T/C (second compound 0.1 µM, first compound 0.316 µM) 62.3% | viability, T/C (second compound 0.1 µM, first compound 1 µM) 50.2% | viability, T/C (second compound 0.1 µM, first compound 3.16 µM) 39.4% | viability, T/C (second compound 0.1 µM, first compound 10 µM) 24.9% | viability, T/C (second compound 0.316 µM, first compound 0.0316 µM) 41.2% | viability, T/C (second compound 0.316 µM, first compound 0.1 µM) 43.8% | viability, T/C (second compound 0.316 µM, first compound 0.316 µM) 44.7% | viability, T/C (second compound 0.316 µM, first compound 1 µM) 40.9% | viability, T/C (second compound 0.316 µM, first compound 3.16 µM) 27.3% | viability, T/C (second compound 0.316 µM, first compound 10 µM) 16.9% | viability, T/C (second compound 1 µM, first compound 0.0316 µM) 33.4% | viability, T/C (second compound 1 µM, first compound 0.1 µM) 31.7% | viability, T/C (second compound 1 µM, first compound 0.316 µM) 32.5% | viability, T/C (second compound 1 µM, first compound 1 µM) 27.1% | viability, T/C (second compound 1 µM, first compound 3.16 µM) 15.7% | viability, T/C (second compound 3.16 µM, first compound 0.0316 µM) 25% | viability, T/C (second compound 3.16 µM, first compound 0.1 µM) 22.5% | viability, T/C (second compound 3.16 µM, first compound 0.316 µM) 22.5% | viability, T/C (second compound 3.16 µM, first compound 1 µM) 16.1% | viability, T/C (second compound 3.16 µM, first compound 3.16 µM) 12.1% | viability, T/C (second compound 10 µM, first compound 0.0316 µM) 21% | viability, T/C (second compound 10 µM, first compound 0.1 µM) 22.2% | viability, T/C (second compound 10 µM, first compound 0.316 µM) 16.6% | viability, T/C (second compound 10 µM, first compound 1 µM) 15.7%
